Reference: PubChem BioAssay AID1845205 (Molecular Pharmacology Branch, DTP, NCI, 2023)

System: MPNST multicellular tumor spheroids, viability % test/control
Test: Anticancer human tumor MPNST cell line growth inhibition;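 note: spheroids exposed to agents for seven days after three days of growth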;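 for viability, T/C: luminescence signal used as surrogate for viable cell amount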
Details: for IC50: curve of first compound; for viability, T/C: stronger effect = lower value; active = viability on the fitted dose curve at most 10% of control; inactive = the rest
Procedure, shortened: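 Complex tumor spheroids combined malignant cells with endothelial cells and mesenchymal stem cells. DNA-damaging drugs and DNA repair inhibitors were tested alone and in combination, at half-log dilutions down from clinical Cmax (top 10 microM if Cmax unknown), 0.25% DMSO final.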

Cc1sc2c(c1C)C(c1ccc(Cl)cc1)=NC(CC(=O)Nc1ccc(O)cc1)c1nnc(C)n1-2 (stereo unspecified) + COc1cc2c(cc1O)CCNC21CSC2c3c(OC(C)=O)c(C)c4c(c3C(COC1=O)N1C(O)C3Cc5cc(C)c(OC)c(O)c5C(C21)N3C)OCO4
< 0.00949 µM: IC50 (second compound 0.000949 µM) | IC50 (second compound 0.003 µM)
0.155 µM: IC50 (second compound 94.9 pM)
inactive: viability, T/C (second compound 30 pM, first compound 0.00949 µM) 86.9% | viability, T/C (second compound 30 pM, first compound 0.03 µM) 71% | viability, T/C (second compound 30 pM, first compound 0.0949 µM) 85.7% | viability, T/C (second compound 30 pM, first compound 0.3 µM) 38.2% | viability, T/C (second compound 30 pM, first compound 0.949 µM) 26.3% | viability, T/C (second compound 30 pM, first compound 3 µM) 24% | viability, T/C (second compound 94.9 pM, first compound 0.00949 µM) 62.5% | viability, T/C (second compound 94.9 pM, first compound 0.03 µM) 70.3% | viability, T/C (second compound 94.9 pM, first compound 0.0949 µM) 56.6% | viability, T/C (second compound 94.9 pM, first compound 0.3 µM) 39.3% | viability, T/C (second compound 94.9 pM, first compound 0.949 µM) 27.9% | viability, T/C (second compound 94.9 pM, first compound 3 µM) 23.9% | viability, T/C (second compound 0.0003 µM, first compound 0.00949 µM) 59.6% | viability, T/C (second compound 0.0003 µM, first compound 0.03 µM) 53.3% | viability, T/C (second compound 0.0003 µM, first compound 0.0949 µM) 47.5% | viability, T/C (second compound 0.0003 µM, first compound 0.3 µM) 36.3% | viability, T/C (second compound 0.0003 µM, first compound 0.949 µM) 26.6% | viability, T/C (second compound 0.0003 µM, first compound 3 µM) 22.4% | viability, T/C (second compound 0.000949 µM, first compound 0.00949 µM) 31% | viability, T/C (second compound 0.000949 µM, first compound 0.03 µM) 29.7% | viability, T/C (second compound 0.000949 µM, first compound 0.0949 µM) 27.4% | viability, T/C (second compound 0.000949 µM, first compound 0.3 µM) 21.6% | viability, T/C (second compound 0.000949 µM, first compound 0.949 µM) 12.7% | viability, T/C (second compound 0.000949 µM, first compound 3 µM) 14.8%
0.0584 µM: IC50 (second compound 0.0003 µM)
active: viability, T/C (second compound 0.003 µM, first compound 0.00949 µM) 6.19% | viability, T/C (second compound 0.003 µM, first compound 0.03 µM) 4.21% | viability, T/C (second compound 0.003 µM, first compound 0.0949 µM) 4.96% | viability, T/C (second compound 0.003 µM, first compound 0.3 µM) 1.41% | viability, T/C (second compound 0.003 µM, first compound 0.949 µM) 2.26% | viability, T/C (second compound 0.003 µM, first compound 3 µM) 1.94%
0.219 µM: IC50 (second compound 30 pM)

CC(C)n1c(=O)n(C)c2cnc3cc(F)c(-c4ccc(OCCCN5CCCCC5)nc4)cc3c21 + Cn1nnc2c(C(N)=O)ncn2c1=O
> 10 µM: IC50 (second compound 1 µM) | IC50 (second compound 3.16 µM) | IC50 (second compound 10 µM) | IC50 (second compound 31.6 µM) | IC50 (second compound 100 µM)
inactive: viability, T/C (second compound 1 µM, first compound 0.0316 µM) 87.4% | viability, T/C (second compound 1 µM, first compound 0.1 µM) 83.7% | viability, T/C (second compound 1 µM, first compound 0.316 µM) 82.6% | viability, T/C (second compound 1 µM, first compound 1 µM) 77.9% | viability, T/C (second compound 1 µM, first compound 3.16 µM) 79.4% | viability, T/C (second compound 1 µM, first compound 10 µM) 61.9% | viability, T/C (second compound 3.16 µM, first compound 0.0316 µM) 84.6% | viability, T/C (second compound 3.16 µM, first compound 0.1 µM) 82.9% | viability, T/C (second compound 3.16 µM, first compound 0.316 µM) 92.5% | viability, T/C (second compound 3.16 µM, first compound 1 µM) 99% | viability, T/C (second compound 3.16 µM, first compound 3.16 µM) 84.9% | viability, T/C (second compound 3.16 µM, first compound 10 µM) 65.2% | viability, T/C (second compound 10 µM, first compound 0.0316 µM) 76.6% | viability, T/C (second compound 10 µM, first compound 0.1 µM) 92.4% | viability, T/C (second compound 10 µM, first compound 0.316 µM) 82.4% | viability, T/C (second compound 10 µM, first compound 1 µM) 74.8% | viability, T/C (second compound 10 µM, first compound 3.16 µM) 77.7% | viability, T/C (second compound 10 µM, first compound 10 µM) 72.1% | viability, T/C (second compound 31.6 µM, first compound 0.0316 µM) 88.2% | viability, T/C (second compound 31.6 µM, first compound 0.1 µM) 89% | viability, T/C (second compound 31.6 µM, first compound 0.316 µM) 68.6% | viability, T/C (second compound 31.6 µM, first compound 1 µM) 81.8% | viability, T/C (second compound 31.6 µM, first compound 3.16 µM) 83.7% | viability, T/C (second compound 31.6 µM, first compound 10 µM) 68.8% | viability, T/C (second compound 100 µM, first compound 0.0316 µM) 76.8% | viability, T/C (second compound 100 µM, first compound 0.1 µM) 71.8% | viability, T/C (second compound 100 µM, first compound 0.316 µM) 74.2% | viability, T/C (second compound 100 µM, first compound 1 µM) 71.2% | viability, T/C (second compound 100 µM, first compound 3.16 µM) 91% | viability, T/C (second compound 100 µM, first compound 10 µM) 67.2%

COc1cc2c(cc1O)CCNC21CSC2c3c(OC(C)=O)c(C)c4c(c3C(COC1=O)N1C(O)C3Cc5cc(C)c(OC)c(O)c5C(C21)N3C)OCO4 (stereo unspecified)
12.3% [middle of 10 runs]: viability, T/C (compound 0.003 µM)

Cc1cc(C)c(CNC(=O)c2cc(-c3ccc(CN4CCOCC4)cc3)cc3c2cnn3C2CCCC2)c(=O)[nH]1 + COc1cc2c(cc1O)CCNC21CSC2c3c(OC(C)=O)c(C)c4c(c3C(COC1=O)N1C(O)C3Cc5cc(C)c(OC)c(O)c5C(C21)N3C)OCO4
> 10 µM: IC50 (second compound 30 pM) | IC50 (second compound 94.9 pM) | IC50 (second compound 0.0003 µM)
inactive: viability, T/C (second compound 30 pM, first compound 0.0316 µM) 106% | viability, T/C (second compound 30 pM, first compound 0.1 µM) 93.7% | viability, T/C (second compound 30 pM, first compound 0.316 µM) 85.2% | viability, T/C (second compound 30 pM, first compound 1 µM) 101% | viability, T/C (second compound 30 pM, first compound 3.16 µM) 113% | viability, T/C (second compound 30 pM, first compound 10 µM) 99.3% | viability, T/C (second compound 94.9 pM, first compound 0.0316 µM) 104% | viability, T/C (second compound 94.9 pM, first compound 0.1 µM) 89.8% | viability, T/C (second compound 94.9 pM, first compound 0.316 µM) 71% | viability, T/C (second compound 94.9 pM, first compound 1 µM) 102% | viability, T/C (second compound 94.9 pM, first compound 3.16 µM) 120% | viability, T/C (second compound 94.9 pM, first compound 10 µM) 68.9% | viability, T/C (second compound 0.0003 µM, first compound 0.0316 µM) 86% | viability, T/C (second compound 0.0003 µM, first compound 0.1 µM) 80.3% | viability, T/C (second compound 0.0003 µM, first compound 0.316 µM) 83.3% | viability, T/C (second compound 0.0003 µM, first compound 1 µM) 98% | viability, T/C (second compound 0.0003 µM, first compound 3.16 µM) 91.4% | viability, T/C (second compound 0.0003 µM, first compound 10 µM) 70.7% | viability, T/C (second compound 0.000949 µM, first compound 0.0316 µM) 41.3% | viability, T/C (second compound 0.000949 µM, first compound 0.1 µM) 53.5% | viability, T/C (second compound 0.000949 µM, first compound 0.316 µM) 46% | viability, T/C (second compound 0.000949 µM, first compound 1 µM) 43.6% | viability, T/C (second compound 0.000949 µM, first compound 3.16 µM) 44.3% | viability, T/C (second compound 0.000949 µM, first compound 10 µM) 41.6% | viability, T/C (second compound 0.003 µM, first compound 0.0316 µM) 13.1% | viability, T/C (second compound 0.003 µM, first compound 0.1 µM) 12.2% | viability, T/C (second compound 0.003 µM, first compound 0.316 µM) 12.1% | viability, T/C (second compound 0.003 µM, first compound 1 µM) 13.5% | viability, T/C (second compound 0.003 µM, first compound 3.16 µM) 12.6% | viability, T/C (second compound 0.003 µM, first compound 10 µM) 9.87%
< 0.0316 µM: IC50 (second compound 0.000949 µM) | IC50 (second compound 0.003 µM)
